The values that follow come from article PMC6441019, “Prospective discovery of small molecule enhancers of an E3 ligase-substrate interaction” (Nature Communications, 2019).

The target of test [1] is T1, S33E/S37A β-catenin:β-TrCP interaction (Homo sapiens, UniProt P35222+Q9Y297, S33E/S37A).
T1 construct: a ternary complex with the full-length S33E/S37A β-catenin and β-TrCP in cells; evaluated for their ability to pull down endogenous β-TrCP; expressed in transfected cells; host or cells: HEK293T (transient, FuGeneHD); β-TrCP endogenous
T1 sequence (P35222 whole entry S33E/S37A): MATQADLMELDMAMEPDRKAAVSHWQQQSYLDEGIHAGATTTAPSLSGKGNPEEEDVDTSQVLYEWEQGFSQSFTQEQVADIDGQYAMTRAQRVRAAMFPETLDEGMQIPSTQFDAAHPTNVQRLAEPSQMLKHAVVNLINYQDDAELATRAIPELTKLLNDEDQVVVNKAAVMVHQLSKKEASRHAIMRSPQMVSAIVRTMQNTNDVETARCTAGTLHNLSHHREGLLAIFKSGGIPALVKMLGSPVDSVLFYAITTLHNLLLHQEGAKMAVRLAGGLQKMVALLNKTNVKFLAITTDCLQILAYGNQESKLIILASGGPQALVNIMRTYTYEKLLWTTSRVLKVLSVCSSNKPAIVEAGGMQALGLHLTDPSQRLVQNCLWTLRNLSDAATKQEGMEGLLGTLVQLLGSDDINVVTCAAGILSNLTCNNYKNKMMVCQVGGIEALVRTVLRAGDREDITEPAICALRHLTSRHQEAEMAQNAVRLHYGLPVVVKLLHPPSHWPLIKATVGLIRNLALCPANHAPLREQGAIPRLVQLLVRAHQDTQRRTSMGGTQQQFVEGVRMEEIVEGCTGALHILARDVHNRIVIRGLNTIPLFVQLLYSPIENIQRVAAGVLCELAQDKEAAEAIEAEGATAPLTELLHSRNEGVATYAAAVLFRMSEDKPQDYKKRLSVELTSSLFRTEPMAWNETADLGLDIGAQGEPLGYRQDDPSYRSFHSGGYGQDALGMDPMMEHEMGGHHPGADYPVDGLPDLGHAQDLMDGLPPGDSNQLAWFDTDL
T1 sequence (Q9Y297 whole entry, stated change not applied): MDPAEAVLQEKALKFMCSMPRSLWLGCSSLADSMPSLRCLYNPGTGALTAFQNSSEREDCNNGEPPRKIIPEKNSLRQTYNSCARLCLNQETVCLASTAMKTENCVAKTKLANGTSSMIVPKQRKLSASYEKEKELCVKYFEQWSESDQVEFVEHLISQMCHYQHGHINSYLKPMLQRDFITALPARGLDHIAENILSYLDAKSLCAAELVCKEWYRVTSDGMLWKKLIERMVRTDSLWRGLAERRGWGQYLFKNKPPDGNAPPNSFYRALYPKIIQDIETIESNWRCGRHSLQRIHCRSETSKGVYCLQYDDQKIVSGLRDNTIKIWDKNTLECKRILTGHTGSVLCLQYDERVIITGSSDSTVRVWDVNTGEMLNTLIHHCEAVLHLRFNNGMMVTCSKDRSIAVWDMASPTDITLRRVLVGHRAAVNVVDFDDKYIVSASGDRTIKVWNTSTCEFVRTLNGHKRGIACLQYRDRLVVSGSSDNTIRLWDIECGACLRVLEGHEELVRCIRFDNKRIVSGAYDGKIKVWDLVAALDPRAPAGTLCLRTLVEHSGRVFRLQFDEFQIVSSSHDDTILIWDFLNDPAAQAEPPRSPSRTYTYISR
T1 sequence (P63208 whole entry partner): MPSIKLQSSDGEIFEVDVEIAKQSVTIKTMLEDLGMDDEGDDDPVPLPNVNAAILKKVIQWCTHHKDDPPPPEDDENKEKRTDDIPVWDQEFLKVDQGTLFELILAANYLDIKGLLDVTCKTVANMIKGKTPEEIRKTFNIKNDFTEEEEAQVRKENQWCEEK
The experiment in a line: Lysate pulldown with recombinant β-catenin (HEK293T lysate). The note with it: anti-myc pulldown. The protocol: Lysate pulldown with recombinant β-catenin: HEK293T cells were lysed by freeze thaw in lysis buffer (1× PBS, 2 mM DTT, 0.01% Triton X-100, proteases inhibitors (Sigma, P2714 and 11836170001), phosphatase inhibitors (Sigma, P5726 and P0044), 5 nM Calyculin A (Sigma, C5552)) at 85 µL of buffer to 1 × 10^6 cells. Lysates were clarified by centrifugation at 20,000 × g for 20 min at 4 °C and the supernatant was collected for subsequent use. Purified Myc/FLAG-tagged wild-type β-catenin protein at 2 µM was pretreated with 1 µM GSK3β (EMD Millipore, 14-306), 50 nM Axin (Enzo Life Sciences, ENZ-PRT130-0020), 200 nM CK1α (Life Technologies, PV3850), and 2 mM ATP at 30 °C for 60 min. This phosphorylated β-catenin, unphosphorylated WT β-catenin, or S33E/S37A β-catenin were each diluted into lysate to 100 nM, at the indicated compound concentrations, at a final DMSO concentration of 1% DMSO. Thirty-five microliters of these mixtures were incubated over 10 µL of anti-c-myc magnetic beads (Pierce, Catalog #PI88842), with rotation, at room temperature for 2 h. Beads were then pelleted, washed twice with 200 µL cold wash buffer (1×PBS, 2 mM DTT, 0.01% TX-100, 1% DMSO) containing compound at the same incubation concentration. Washed beads were resuspended in 30 µL SDS loading dye and analyzed by western analysis.

The target of test [2] is T2, S33E/S37A β-catenin peptide binding to β-TrCP (Homo sapiens, UniProt P35222+Q9Y297, S33E/S37A).
T2 construct: titrating BODIPY-FL-labeled β-catenin peptides (residues 17-48) against 300 pM β-TrCP; 6xHis-SMT3 (N, cleaved yes); made in house; host or cells: E. coli (co-expressed with BirA)
T2 sequence (Q9Y297 1-569 isoform Q9Y297-2, stated change not applied): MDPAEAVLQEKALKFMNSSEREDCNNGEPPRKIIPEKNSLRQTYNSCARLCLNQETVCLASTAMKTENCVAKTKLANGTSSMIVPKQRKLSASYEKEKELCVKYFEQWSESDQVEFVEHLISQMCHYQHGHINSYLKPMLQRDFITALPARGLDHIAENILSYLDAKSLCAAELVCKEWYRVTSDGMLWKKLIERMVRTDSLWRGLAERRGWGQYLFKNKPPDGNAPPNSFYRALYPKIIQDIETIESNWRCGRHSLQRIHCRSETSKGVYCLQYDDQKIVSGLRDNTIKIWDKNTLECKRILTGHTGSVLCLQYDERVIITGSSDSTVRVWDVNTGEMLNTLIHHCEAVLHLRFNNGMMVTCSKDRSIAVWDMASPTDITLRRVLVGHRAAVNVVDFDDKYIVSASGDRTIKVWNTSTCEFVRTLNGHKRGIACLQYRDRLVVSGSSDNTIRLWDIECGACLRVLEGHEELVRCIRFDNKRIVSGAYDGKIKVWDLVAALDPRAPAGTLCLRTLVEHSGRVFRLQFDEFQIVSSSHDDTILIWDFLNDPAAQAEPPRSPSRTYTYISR
T2 sequence (P63208 whole entry partner, the tested form may be a part): as the sequence (P63208 whole entry partner) above
T2 sequence (P35222 17-48 S33E/S37A limits assumed): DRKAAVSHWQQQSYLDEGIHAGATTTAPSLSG
Kind of test: TR-FRET peptide binding assay, S33E/S37A peptide. As to conditions: read-out: binding affinity of S33E/S37A peptide. As for the experimental part:
(§1) Compounds were incubated in a 20 μl reaction volume with 300 pM biotinylated β-TrCP/Skp1 preincubated with 1.2 nM terbium-coupled streptavidin (Cisbio) and BODIPY-FL labeled β-catenin peptides (see figure legends for peptide details) in a white 384-well microplate (Perkin Elmer ProxiPlate), using a PBS buffer containing 0.01% Triton X-100 and 2 mM DTT with 2% final DMSO. […] Following 1-h incubation, plates were read for TR-FRET signal after excitation at 320 nm and read at 520 and 620 nm using an EnVision plate reader (Perkin Elmer). TR-FRET signal was calculated using a 520/620 nm ratio. Binding and enhancement data were fit to a standard Hill equation (Y = Bmin + (Bmax − Bmin)(X^h)/(X^h + EC50^h)) in Prism (GraphPad). Errors are standard error of the fit.
For orientation: Time-resolved FRET reads energy transfer from a long-lived donor to a nearby acceptor.

Test [3] concerns the target T3, pSer33/S37A β-catenin peptide ubiquitylation by SCFβ-TrCP (Homo sapiens, UniProt P35222+Q9Y297, S37A).
T3 construct: fluorescently-labeled β-catenin peptide (residues 17–60; as indicated) was ubiquitylated; 6xHis-SMT3 (N, cleaved yes); made in house; host or cells: E. coli (β-TrCP1/Skp1); E. coli or SF9 (Cul1-Rbx1)
The experiment in a line: In vitro ubiquitylation of pSer33/S37A β-catenin peptide. In kind it is biochemical. As to conditions: forms long ubiquitin chains. The protocol: Four micromolar of fluorescently-labeled β-catenin peptide (residues 17–60) were ubiquitylated in a buffer containing 25 mM Tris Cl (pH 7.5), 50 mM NaCl, 5 mM MgCl2, 2 mM ATP, and 1 mM DTT at room temperature in the presence of 62.5 μM Ubiquitin, 125 nM Ube1, 1.75 μM Cdc34A, and 100 nM neddylated SCF^β-TrCP in the presence or absence of compound (as indicated). Typically, individual reaction mixes with either Ubiquitin, Ube1 and Cdc34A or β-catenin, SCF^β-TrCP and compound were preincubated and subsequently mixed to initiate β-catenin ubiquitylation. Reactions were quenched by SDS loading buffer, resolved by SDS-PAGE and imaged for fluorescence. For full length β-catenin protein ubiquitylation 400 nM β-catenin and 400 nM SCF^β-TrCP were used instead.

For test [4], the target named is T2, S33E/S37A β-catenin peptide binding to β-TrCP. The experiment in a line: TR-FRET binding enhancement assay, S33E/S37A peptide. The note with it: 1% binding saturation. As for the experimental part: as §1

T3 sequence (Q9Y297 1-569 isoform Q9Y297-2, stated change not applied): as the sequence (Q9Y297 1-569 isoform Q9Y297-2, stated change not applied) above
T3 sequence (P63208 whole entry partner, the tested form may be a part): as the sequence (P63208 whole entry partner) above
T3 sequence (Q13616 whole entry partner, the tested form may be a part): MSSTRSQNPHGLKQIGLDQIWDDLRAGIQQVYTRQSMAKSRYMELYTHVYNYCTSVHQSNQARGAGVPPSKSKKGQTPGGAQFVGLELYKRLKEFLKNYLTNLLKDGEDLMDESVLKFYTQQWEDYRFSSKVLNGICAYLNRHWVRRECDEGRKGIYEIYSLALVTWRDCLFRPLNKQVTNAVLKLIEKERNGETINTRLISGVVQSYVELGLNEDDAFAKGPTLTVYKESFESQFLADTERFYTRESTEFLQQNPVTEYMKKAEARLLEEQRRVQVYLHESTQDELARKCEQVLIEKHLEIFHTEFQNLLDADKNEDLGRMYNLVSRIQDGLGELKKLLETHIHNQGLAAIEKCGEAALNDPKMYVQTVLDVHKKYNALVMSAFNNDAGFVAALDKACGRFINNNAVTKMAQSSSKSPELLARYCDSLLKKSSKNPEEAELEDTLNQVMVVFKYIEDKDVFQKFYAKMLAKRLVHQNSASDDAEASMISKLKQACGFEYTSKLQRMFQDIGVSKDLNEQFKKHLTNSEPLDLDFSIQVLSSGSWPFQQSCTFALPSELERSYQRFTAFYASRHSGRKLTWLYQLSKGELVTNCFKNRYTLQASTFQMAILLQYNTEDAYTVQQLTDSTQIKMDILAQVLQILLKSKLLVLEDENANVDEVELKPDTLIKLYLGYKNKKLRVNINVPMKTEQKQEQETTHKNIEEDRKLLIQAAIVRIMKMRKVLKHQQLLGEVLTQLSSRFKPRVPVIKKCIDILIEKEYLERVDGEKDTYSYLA
T3 sequence (P62877 whole entry partner, the tested form may be a part): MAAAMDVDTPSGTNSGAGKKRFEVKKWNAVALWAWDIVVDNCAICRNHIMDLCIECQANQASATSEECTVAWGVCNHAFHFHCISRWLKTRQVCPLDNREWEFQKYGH
T3 sequence (Q15843 1-76 partner limits assumed): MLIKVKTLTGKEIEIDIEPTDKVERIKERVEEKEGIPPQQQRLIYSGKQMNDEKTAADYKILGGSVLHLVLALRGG
T3 sequence (P35222 17-60 S37A limits assumed): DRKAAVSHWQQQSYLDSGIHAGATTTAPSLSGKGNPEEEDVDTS

As for `N#Cc1cccc2c1CN(C(=O)c1c(Sc3c(Cl)cccc3Cl)cc(C(F)(F)F)[nH]c1=O)C2` [NRX-252114], in test [1], the “interaction of S33E/S37A β-catenin with endogenous β-TrCP in cell lysate” value is “dose-dependent interaction”. For the same compound, the Kd in test [2] turned out to be 6 nM. The “enhancement of ubiquitylation of pSer33/S37A β-catenin peptide” value in test [3] is listed as “further enhances”. In addition, the EC50 (commonly the concentration needed to bring the measured effect to its halfway point) in test [4] is 1100 ± 30 nM.
